Values quoted from earlier work as cited in article PMC3350394, “Kinetic analysis and test-retest variability of the radioligand [^11C](R)-PK11195 binding to TSPO in the human brain - a PET study in control subjects” (EJNMMI Research, 2012).

Experiments:
TSPO [1] = test system: TSPO; set-up: method as in PMID 19948230; details: up; cited from earlier work
[2] = set-up: method as in PMID 2528555; details: cited from earlier work
[3] = set-up: method as in PMID 2528555; details: cited from earlier work; remark: listed apart in the source
[4] = same experimental setting and analytical approach; cited from earlier work
dopamine D2/3 receptor = biological target: dopamine D2/3 receptor; set-up: method as in PMID 2528555, PMID 8122313; details: approximately; read-out: affinity; cited from earlier work
[5] = test system: human serum albumin (HSA); set-up: method as in PMID 12623120; details: relative to AGP; cited from earlier work
[6] = test system: alfa1-acid glycoprotein (AGP); set-up: method as in PMID 12623120; details: cited from earlier work
TSPO [7] = test system: TSPO; set-up: method as in PMID 15103694; details: unlabelled displacer; cited from earlier work

SMILES: COc1ccccc1CN(C(C)=O)c1cnccc1Oc1ccccc1 [PBR28]
- displacement of [11C](R)-PK11195 binding (TSPO [1]): 40% to 60

SMILES: CCN1CCC[C@H]1CNC(=O)c1c(O)c(Cl)cc(Cl)c1O[11CH3] (racemic) [[^11C]raclopride]
- first pass extraction [2]: about 20%
- plasma protein binding [3]: 96%
- K1 [4]: 0.16

SMILES: CCN1CCC[C@H]1CNC(=O)c1c(O)c(Cl)cc(Cl)c1OC (racemic) [[^11C]raclopride]
- Kd (dopamine D2/3 receptor): 1 to 3 nM

SMILES: CCC(C)N(C)C(=O)c1cc2ccccc2c(-c2ccccc2Cl)n1 (stereo not drawn) [[^3 H]PK11195, 1-(2-chlorophenyl)-N-methyl-N-(1-methylpropyl)-3-isoquinoline carboxamide]
- binding to HSA [5]: to a lesser extent
- binding to AGP [6]: high affinity

SMILES: CCC(C)N(C)C(=O)c1cc2ccccc2c(-c2ccccc2Cl)n1 (stereo not drawn) [PK11195, 1-(2-chlorophenyl)-N-methyl-N-(1-methylpropyl)-3-isoquinoline carboxamide]
- displacement of the total [11C]DAA1106 binding (TSPO [7]): about 70%

SMILES: CCN1CCC[C@H]1CNC(=O)c1cc(Br)cc(OC)c1O[11CH3] [[^11C]FLB-457]
- K1 [4]: 0.42
